Tested on: A-549 (Human lung adenocarcinoma cells)
Assay: MTT inhibition of tumor cell growth, A-549
Type: cell-based
Conditions: Homo sapiens, A549, 48 h
Method in brief: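 IC50 values derive from a 5-concentration re-screen following a 40 μM primary test, with 48 h treatment and MTT colorimetry at 595 nm.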

- IC50 (Table 1, 7-hydroxy derivatives of S-3): 3.22 µM
- IC50 (Table 2, derivatives having potential Michael reaction acceptor): 3.22 µM
- IC50 (Table 3, single Michael reaction acceptor, modified lactonic ring): 3.22 µM
- IC50 (Table 4, derivatives obtained by reduction of the lactonic ring): 3.22 µM
- IC50 (Table 5, derivatives having double Michael reaction acceptor): 3.22 µM
- IC50 (Table 7 (first), alkaloid derivatives): 3.22 µM
Structure (SMILES): C=C1C(=O)[C@]23CC[C@H]1CC2[C@@]12CCC[C@@](C)(COC1=O)C2C[C@H]3O (stereo partly drawn) [Compound 1, 15-oxospiramilactone]

— patent US10112918B2, “15-oxospiramilactone derivatives, preparation method and uses thereof” (Kunming Institute of Botany, The Chinese Academy of Sciences, priority 2013, dated 2018)
